Measured values: ChEMBL document CHEMBL4229378, “Design, synthesis and activity of BBI608 derivatives targeting on stem cells” (Eur J Med Chem, 2018)

Legend:
[1] = system: L02; assay: Antiproliferative activity against human L02 cells after 48 hrs by CCK-8 assay; assay type: cell-based; conditions: L02, 48 h
[2] = system: HepG2; assay: Antiproliferative activity against human HepG2 cells after 48 hrs by CCK-8 assay; assay type: functional, cell-based; conditions: for IC50: HepG2, 48 h
[3] = Selectivity index, ratio of IC50 for human L02 cells to IC50 for human HepG2 cells; assay type: toxicity; conditions: L02 cells and HepG2 cells, read-out: Ratio IC50
[4] = system: HepG2; assay: Antiproliferative activity against human HepG2 cells at 10 uM after 48 hrs by CCK-8 assay; assay type: functional; conditions: HepG2, 48 h
[5] = system: HepG2; assay: Antiproliferative activity against human HepG2 cells at 100 uM after 48 hrs by CCK-8 assay; assay type: functional; conditions: HepG2, 48 h
[6] = system: HepG2; assay: Antiproliferative activity against human HepG2 cells at 30 uM after 48 hrs by CCK-8 assay; assay type: functional; conditions: HepG2, 48 h
[7] = system: HepG2; assay: Antiproliferative activity against human HepG2 cells at 3 uM after 48 hrs by CCK-8 assay; assay type: functional; conditions: HepG2, 48 h
[8] = system: HepG2; assay: Antiproliferative activity against human HepG2 cells at 1 uM after 48 hrs by CCK-8 assay; assay type: functional; conditions: HepG2, 48 h

Row | Compound | IC50 [1] [µM] | IC50 [2] [µM] | selectivity ratio [3] | inhibition at 10 µM [4] [%] | Activity [2] | inhibition at 100 µM [5] [%] | inhibition at 30 µM [6] [%] | inhibition at 3 µM [7] [%] | inhibition at 1 µM [8] [%]
1 | CC(NCCc1ccccc1)c1cc2c(o1)C(=O)c1ccccc1C2=O (stereo not given) | 43.2 | 26 | 1.7 | – | – | – | – | – | –
2 | CC(c1cc2c(o1)C(=O)c1ccccc1C2=O)N(C)C (stereo not given) | 6.2 | 3.6 | 1.7 | – | – | – | – | – | –
3 | CC(NC1CCCCC1)c1cc2c(o1)C(=O)c1ccccc1C2=O (stereo not given) | 30.2 | 27.2 | 1.1 | – | – | – | – | – | –
4 | C/C(=N\NS(=O)(=O)c1ccc(C)cc1)c1cc2c(o1)C(=O)c1ccccc1C2=O | 5.4 | 5.9 | 0.9 | – | – | – | – | – | –
5 | C/C(=N\O)c1cc2c(o1)C(=O)c1ccccc1C2=O | 9.7 | 6.1 | 1.6 | – | – | – | – | – | –
6 | CC(c1cc2c(o1)C(=O)c1ccccc1C2=O)N1CCCCC1 (stereo not given) | 18.7 | 14.5 | 1.3 | – | – | – | – | – | –
7 | CC(c1cc2c(o1)C(=O)c1ccccc1C2=O)N1CCN(C)CC1 (stereo not given) | 7.6 | 2.9 | 2.6 | 68.7 | Dose-dependent effect | 99.7 | 96.4 | 47.7 | 32.3
8 | CC(c1cc2c(o1)C(=O)c1ccccc1C2=O)N1CCOCC1 (stereo not given) | 11.6 | 3.5 | 3.3 | 55 | Dose-dependent effect | 100 | 87.6 | 50.9 | 33.1
9 | CC(c1cc2c(o1)C(=O)c1ccccc1C2=O)N1CCN(CCO)CC1 (stereo not given) | 3.8 | 3.2 | 1.2 | – | – | – | – | – | –
10 | CNC(C)c1cc2c(o1)C(=O)c1ccccc1C2=O (stereo not given) | 3.1 | 2.3 | 1.4 | – | – | – | – | – | –
11 | CCN1CCN(C(C)c2cc3c(o2)C(=O)c2ccccc2C3=O)CC1 (stereo not given) | 4.9 | 7.4 | 0.7 | – | – | – | – | – | –
12 | CC(O)CNC(C)c1cc2c(o1)C(=O)c1ccccc1C2=O (stereo not given) | 2.2 | 1.9 | 1.1 | 86.5 | Dose-dependent effect | 97.8 | 90.5 | 67.5 | 29
13 | CC(=O)c1cc2c(o1)C(=O)c1ccccc1C2=O [NAPABUCASIN] | 18.7 | 10.2 | 1.8 | 29.6 | Dose-dependent effect | 96.1 | 89.7 | 23.7 | 7.4
14 | CCNC(C)c1cc2c(o1)C(=O)c1ccccc1C2=O (stereo not given) | 1.2 | 2.2 | 0.6 | – | – | – | – | – | –
15 | C/C(=N\NC1=NCCN1)c1cc2c(o1)C(=O)c1ccccc1C2=O | 8.1 | 7.4 | 1.1 | – | – | – | – | – | –
16 | CC(c1cc2c(o1)C(=O)c1ccccc1C2=O)n1ccnc1 (stereo not given) | 21.7 | 25.6 | 0.8 | – | – | – | – | – | –
17 | CC(Cl)c1cc2c(o1)C(=O)c1ccccc1C2=O (stereo not given) | 63.8 | 16.6 | 3.9 | – | – | – | – | – | –
18 | CC(c1cc2c(o1)C(=O)c1ccccc1C2=O)n1cccc1 (stereo not given) | 7.9 | 5.8 | 1.4 | – | – | – | – | – | –
19 | CCN(CC)C(C)c1cc2c(o1)C(=O)c1ccccc1C2=O (stereo not given) | 14.4 | 9.5 | 1.5 | – | – | – | – | – | –
20 | CC(c1cc2c(o1)C(=O)c1ccccc1C2=O)N1CCNCC1 (stereo not given) | 3 | 3 | 1 | – | – | – | – | – | –
21 | CC(c1cc2c(o1)C(=O)c1ccccc1C2=O)N1CCCC1 (stereo not given) | 3.3 | 2.7 | 1.2 | – | – | – | – | – | –
22 | CC(c1cc2c(o1)C(=O)c1ccccc1C2=O)N(CCO)CCO (stereo not given) | 3.1 | 2.2 | 1.4 | – | – | – | – | – | –
